The subject of data set [1] is rabbit osteoclasts. The data set can be described thus: TRAP(+) MNC formation in isolated rabbit osteoclast cultures, single treatment without LTB4 (Example 6). Type of data set: cell-based. How it is done: (§1) Rabbit osteoclasts were isolated as described by Victoria Tai's report (Doctoral Dissertation, 1997, Graduate Department of Pharmacology, University of Toronto) and Rraser P. Coxon et al. (Methods in Molecular Medicine, vol 80). Neonatal rabbits (New Zealand White) were sacrificed by ether-inhaling method under a hood. The removed long bones were dissected free of attached soft tissues and placed into ice-cold PBS. The long bones were cut longitudinally and mechanically curetted in 10 ml medium 199 with antibiotics (10 ug/ml penicillin G and 50 ug/ml gentamycin) in a glass Petri dish. Each bone was curetted with a scalpel blade and was finely minced. The fragments were then vigorously agitated by pipetting up and down using a pasteur pipette and vortex-mixed for 30 seconds. The fragments were allowed to settle and the cell suspension was then transferred to a 50 ml tube and the previous step repeated three times to a total volume of 40 ml. The bone fragments were allowed to settle (>1 min). The cell suspension was then transferred to a new 50 ml tube, passed through a 40 um cell strainer and centrifuged at 200 g for 8 minutes. The supernatant was removed and the pellet was immediately resuspended in α-MEM with 2% FBS (bicarbonate buffered medium).
(§2) 40 uL droplets of osteoclast-containing suspensions were plated onto 60 mm tissue culture plastic dishes or on dentine slices in 96-well microtiter plates in 2% medium. The cells were allowed ninety minutes for attachment before the addition of 2 mL α-MEM with 2% FBS. After 24 hr culture, cells were washed to remove non-adherent cells and replaced with fresh medium as describes below.
After 24 hr in culture, the medium was replaced with fresh medium containing control, LTB4 receptor antagonists (1000 nM), DW1350 (10, 100 and 1000 nM) or LTB4 (100 nM) and the cultures were continued for an additional 48 hrs.
(§3) All cells were cultured at 37° C. in a humidified atmosphere of 95% air and 5% CO2 in bicarbonate buffered medium at pH 7.4.
(§4) Differentiated osteoclasts are multinucleated cells and have specific enzyme activity, such as ‘tartrate-resistant acid phosphatase (TRAP)’. Therefore, Osteoclast formation was determined by counting the number of TRAP-positive multinucleated cells (TRAP(+) MNCs).
(§5) After culture, the cells were fixed with 10% neutral buffered formalin for 30 min at 4° C., washed twice in distilled water and stained for TRAP activity by incubating with substrate. The number of TRAP(+)MNC with more than 2 nuclei was counted under photomicroscope.
(§6) Results were expressed as mean number of TRAP(+)MNC±SD of All experiments were done at least twice. Statistical analysis was performed for each experiment by student t-test.

Data set [2] deals with LTB4-induced osteoclast formation. Description: LTB4-induced osteoclast formation in rabbit osteoclast cultures, co-treatment and pre-treatment (Example 6). The following applies: dentin slices. Type of data set: cell-based. How it is done:
as §1, §2
After 24 hr in culture, the medium was removed and replaced with fresh medium containing both LTB4 receptor antagonist (1000 nM) and LTB4 (100 nM) or both DW1350 (1000 nM) and LTB4 (100 nM). The cultures were continued for an additional 48 hrs.
After 6 hrs in culture, the medium was removed and cells were pretreated with LTB4 receptor antagonists such as LY292728 (Journal of Medical Chemistry, 1995, vol. 38, No. 10, p 4411-4432), SB209247 (Journal of Medical Chemistry, 1996, vol. 39, No. 19, p 3837-3841), LY293111(Journal of Medical Chemistry, 1995, vol. 38, No. 10, p 4411-4432) and LY223982 (Journal of Medical Chemistry, 1993, vol. 36, p 3333-3340) or DW1350-containing medium and culture continued for 18 hrs. The medium was replaced with medium containing both LTB4 receptor antagonist and LTB4 or DW1350 and LTB4. The cultures were continued for an additional 48 hrs.
as §3, §4, §5, §6

“Also recorded” adds a separate entry of the source.

With `Cc1nc(-c2ccc(OCCCCCOc3ccc(C(=N)NO)cc3)cc2)c(C(C)C)s1` [DW1350, N-hydroxy-4-{5-[4-(5-isopropyl-2-methyl-1,3-thiazol-4-yl)phenoxy]pentoxy}-benzamidine], the “number of TRAP(+) MNCs / osteoclast formation” value in data set [1] (1000 nM, single treatment without LTB4, dentine slices, 48 hrs (FIG. 3-8)) is given as “significant inhibition on the formation of osteoclasts; also recorded: significantly inhibited it”. The “cytotoxic effect based on cell morphology” value in data set [1] (10˜1000 nM, 48 hours) is reported as “No cytotoxic effect based on cell morphology was not observed”. In data set [1] (10˜1000 nM, 48 hours, tissue culture dish, single treatment (FIG. 1, 2)), the “number of TRAP(+) MNCs” value is “significantly decreased the number of TRAP(+) MNCs in a dose-dependent manner”. Moreover, the LTB4-stimulated osteoclast formation entry is given as “significant inhibition on LTB4-stimulated osteoclast formation” in data set [2] (pre-treatment 18 hrs, then 1000 nM compound + 100 nM LTB4 for 48 hrs) and “significant inhibition on LTB4-stimulated osteoclast formation” in data set [2] (simultaneous treatment: 1000 nM compound + 100 nM LTB4, 48 hrs).
